#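 Five compound concentrations were applied to cells in 96-well plates for 48 hours; endpoints were derived by simple linear interpolation of the resulting dose-response curve. Abbreviation: GI50, concentration required for 50% inhibition of growth. TGI: concentration producing complete growth inhibition.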
# Legend:
# Assay in all cases: inhibition of tumour cell growth, NCI panel, 48 h
# [1] = system: HOP-62 NSCLC
# [2] = system: EKVX NSCLC
# [3] = system: SN12C renal
# [4] = system: TK-10 renal
# [5] = system: KM12 colon
# [6] = system: SF-295 CNS
# [7] = system: HOP-92 NSCLC
# [8] = system: OVCAR-5 ovarian
# [9] = system: SR leukemia
# [10] = system: A549 NSCLC
Compound,TGI [1] [µM],TGI [2] [µM],TGI [3] [µM],TGI [4] [µM],TGI [5] [µM],TGI [6] [µM],TGI [7] [µM],TGI [8] [µM],TGI [9] [µM],TGI [10] [µM],GI50 [1] [µM],GI50 [2] [µM],GI50 [3] [µM],GI50 [4] [µM],GI50 [5] [µM],GI50 [6] [µM],GI50 [7] [µM],GI50 [8] [µM],GI50 [9] [µM],GI50 [10] [µM]
CC(=O)OC1C(C)OC(OC2C[C@](O)(C(C)=O)Cc3c(O)c4c(c(O)c32)C(=O)c2ccccc2C4=O)C(F)C1OC(C)=O (stereo partly specified),13.8,99.2,7.76,4.29,> 100,1.47,6.52,5.45,0.887,2.17,–,–,–,–,–,–,–,–,–,–
Cc1c(N(Cc2ccccc2)Cc2ccccc2)nc(S(C)(=O)=O)nc1S(C)(=O)=O,28,3.01,4.28,15.7,–,31.5,8.4,19.3,4.18,29,–,–,–,–,–,–,–,–,–,–
O=C1c2sccc2C(=O)c2c(CO)csc21,25.5,26.6,22.4,23,31.5,8.04,26.1,> 53,> 73.2,6.7,–,–,–,–,–,–,–,–,–,–
O=C(C[N+]1(c2ccccc2)CCOCC1)c1ccccc1,> 100,> 100,> 100,> 100,> 100,> 100,> 100,> 100,> 100,> 100,–,–,–,–,–,–,–,–,–,–
COc1cc(CC2C(=O)OCC2Cc2ccc(OC)c(OC)c2)ccc1O (stereo unspecified),> 100,> 100,> 100,> 100,> 100,> 100,> 100,> 100,> 100,> 100,–,–,–,–,–,–,–,–,–,–
N/N=C(\N)SCc1ccc(N=C=S)cc1,> 100,> 100,> 100,> 100,> 100,> 100,> 100,> 100,> 100,> 100,–,–,–,–,–,–,–,–,–,–
NS(=O)(=O)C1CCCCC1C(=O)NNC(=O)C(=O)Nc1nc(=S)[nH][nH]1 (stereo unspecified),> 100,> 100,> 100,> 100,> 100,> 100,> 100,> 100,> 100,> 100,–,–,–,–,–,–,–,–,–,–
COc1ccc(-c2cc(-c3ccc(Nc4ccnc5cc(C(F)(F)F)ccc45)cc3)nc(N)c2C#N)c2ccccc12,> 100,> 100,–,> 100,> 100,> 100,> 100,> 100,> 100,> 100,–,–,–,–,–,–,–,–,–,–
COc1ccc(Sc2ccccc2[N+](=O)[O-])cc1,> 100,> 100,> 100,> 100,> 100,–,> 100,> 100,> 100,> 100,–,–,–,–,–,–,–,–,–,–
CCCCN1/C(=N/Nc2n[nH]c(=O)c3ccccc23)SCC1c1ccc(Cl)cc1 (stereo unspecified),18.5,41.2,> 100,92.7,19.6,22.6,> 100,61,24.6,> 100,–,–,–,–,–,–,–,–,–,–
CC1SCCc2nc3ccccc3n21 (stereo unspecified),> 100,> 100,> 100,> 100,> 100,> 100,> 100,> 100,> 100,> 100,–,–,–,–,–,–,–,–,–,–
Cc1cc(N(CCCl)CCCl)ccc1/C=N\NC(=O)c1cccnc1,> 100,> 100,> 100,36.2,> 100,28.3,59.3,60,> 100,> 100,19.5,48.8,22.4,11.2,34.4,4.17,17.3,12,4.81,21
C[C@@H](c1ccccc1)N(CC#N)[C@H]1CCC[C@]1(O)/C=C/c1ccc2c(c1)OCO2,> 25,> 25,> 25,> 25,> 25,> 25,> 25,> 25,> 25,> 25,–,–,–,–,–,–,–,–,–,–
O=C(NCc1ccc(Cl)c(Cl)c1)c1nc2ccccc2nc1NCc1ccc(Cl)c(Cl)c1,> 100,> 100,> 100,> 100,> 100,> 100,> 100,> 100,> 100,> 100,–,–,–,–,–,–,–,–,–,–
CCOC(=O)c1c(SCCN(CC)CC)n(-c2ccccc2)c(=S)n(-c2ccccc2)c1=O,32.6,24.8,3.4,3.39,28.5,> 100,4.15,> 57.6,2.6,9.42,–,–,–,–,–,–,–,–,–,–
Cc1ccc(C)c(C(=O)CC2OC(O)C(Cl)C2Cl)c1 (stereo unspecified),> 100,> 100,> 100,> 100,> 100,> 100,77.3,> 100,> 100,> 100,–,–,–,–,–,–,–,–,–,–

Compound,TGI [1] [µM],TGI [2] [µM],TGI [3] [µM],TGI [4] [µM],TGI [5] [µM],TGI [6] [µM],TGI [7] [µM],TGI [8] [µM],TGI [9] [µM],TGI [10] [µM],GI50 [1] [µM],GI50 [2] [µM],GI50 [3] [µM],GI50 [4] [µM],GI50 [5] [µM],GI50 [6] [µM],GI50 [7] [µM],GI50 [8] [µM],GI50 [9] [µM],GI50 [10] [µM]
COc1ccc(-c2cc(=O)c3cc(OC)c(OC)cc3[nH]2)cc1OC,> 100,> 100,> 100,> 100,> 100,> 100,> 100,> 100,> 100,> 100,–,–,–,–,–,–,–,–,–,–
Cc1cc(NS(=O)(=O)c2ccc(NC(NC(=O)OC(C)C)(C(F)(F)F)C(F)(F)F)cc2)nc(C)n1,> 100,> 100,> 100,> 100,> 100,> 100,> 100,> 100,> 100,> 100,–,–,–,–,–,–,–,–,–,–
N#Cc1c(N)n(-c2nc3ccccc3s2)c(=O)c2cc([N+](=O)[O-])ccc12,22,> 56.3,> 100,> 100,> 51.3,> 64.9,42.3,> 79,56.2,> 56.8,–,–,–,–,–,–,–,–,–,–
CC(=O)OC/C=C/Cn1nc(Br)c(=O)[nH]c1=O,> 100,> 100,> 100,> 100,> 100,> 100,> 100,> 100,> 100,> 100,–,–,–,–,–,–,–,–,–,–
Clc1cc2ncn(C3CCCO3)c2cc1Cl (stereo unspecified),> 100,> 100,> 100,> 100,> 100,> 100,> 100,> 100,> 100,> 100,–,–,–,–,–,–,–,–,–,–
CCN(CC)CCCNc1nnc(C)c2[nH]c3ccccc3c12,35.5,63.4,43,67.2,> 100,62.5,55,61.3,32.6,53,–,–,–,–,–,–,–,–,–,–
CC(C)(C)OC(=O)NCCCCC1NC(=O)[C@@H]2Cc3c([nH]c4ccccc34)C(c3ccccc3)N2C1=O (stereo partly specified),> 100,> 100,79.6,> 100,> 100,45.4,85.1,> 100,62.8,> 100,–,–,–,–,–,–,–,–,–,–
CC(C)[C@H](NC(=O)OCc1ccccc1)C(=O)N[C@H](/C=C/C(=O)OC(C)(C)C)CO,> 100,> 100,> 100,> 100,> 100,> 100,> 100,> 100,> 100,> 100,–,–,–,–,–,–,–,–,–,–
CCOP(=O)(OCC)/C(C#N)=C(\C)c1ccco1,> 10,> 10,> 10,> 10,> 10,> 10,> 10,> 10,> 10,> 10,–,–,–,–,–,–,–,–,–,–
N#Cc1c2c(c(Nc3ccc(Cl)cc3)n3c1nc1ccccc13)CCCC2,> 100,> 100,> 100,> 100,> 100,> 100,> 100,> 100,> 100,> 100,–,–,–,–,–,–,–,–,–,–
O=C1Cc2c(-c3ccccc3)cc(-c3ccc(Cl)cc3)nc2-c2ccccc2N1,12.9,> 43.6,16.9,14.3,96.1,23.7,8.72,> 83.7,> 100,35.3,–,–,–,–,–,–,–,–,–,–
CNC(=O)N(C)C(=O)c1ccccc1C(=O)N(C)C(=O)NC,> 10,> 10,> 10,> 10,> 10,> 10,> 10,> 10,> 10,> 10,–,–,–,–,–,–,–,–,–,–
CC(=O)CC(=O)N1CCOC1=O,> 10,> 10,> 10,> 10,> 10,> 10,> 10,> 10,> 10,> 10,–,–,–,–,–,–,–,–,–,–
CCOC(=O)c1ccc(-c2cccs2)[nH]1,> 100,> 100,> 100,> 100,> 100,> 100,> 76.5,> 100,> 100,> 100,–,–,–,–,–,–,–,–,–,–
Cc1ccc(C(=O)C2CC3(CCC2(O)c2ccc(C)cc2)CC(=O)Nc2ccccc2C3=O)cc1 (stereo unspecified),> 100,> 100,> 100,> 100,–,> 100,> 100,> 100,> 100,> 100,–,–,–,–,–,–,–,–,–,–
